This is an account of results in ChEMBL document CHEMBL1129969 (J Med Chem, 1997).

What is called Ki is a dissociation constant, usually derived from enzyme kinetics or from competition with a known ligand. Read a high Ki as weaker binding.

Test [1] deals with Rattus norvegicus. Briefly: Biological activity was determined by uterotonic in vivo test using urethane-anesthetized rats (protracted action). The class given is functional.
The species named for test [2] is Rattus norvegicus. Briefly: Biological activity was determined by pressor test using pithed rat preparations (protracted action). The class given is functional.
The next test has as its target T1, Oxytocin receptor (Rattus norvegicus, UniProt P70536).
T1 sequence (P70536 whole entry): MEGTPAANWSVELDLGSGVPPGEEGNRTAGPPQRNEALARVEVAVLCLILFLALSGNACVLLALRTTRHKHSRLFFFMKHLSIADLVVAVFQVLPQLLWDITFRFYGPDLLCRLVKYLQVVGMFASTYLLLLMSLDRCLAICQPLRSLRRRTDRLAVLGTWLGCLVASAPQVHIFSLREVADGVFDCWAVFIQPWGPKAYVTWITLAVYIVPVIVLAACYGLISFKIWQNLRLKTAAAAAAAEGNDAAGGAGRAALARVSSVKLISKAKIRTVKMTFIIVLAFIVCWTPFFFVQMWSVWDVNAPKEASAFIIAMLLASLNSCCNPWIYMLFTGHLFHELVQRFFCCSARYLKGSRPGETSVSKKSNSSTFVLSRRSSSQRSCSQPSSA
Briefly: Binding affinity against Oxytocin receptor was determined in rat uterine membrane using radioligand [3H]oxytocin. The class given is cell membranes.

The species entered for test [3] is Rattus norvegicus. The test can be described thus: Biological activity was determined by uterotonic in vitro test in magnesium-free solution. The class given is functional.
The species entered for test [4] is Rattus norvegicus. The test can be described thus: Biological activity was determined by pressor test using pithed rat preparations. The class given is functional.
The test system of test [5] is Rattus norvegicus. The test can be described thus: Biological activity was determined by uterotonic in vivo test using urethane-anesthetized rats. It is filed as functional.

In the case of `CC[C@H](C)[C@@H]1NC(=O)[C@H](Cc2ccc(O)cc2)NC(=O)CCSSSC[C@H](C(=O)N2CCC[C@H]2C(=O)N[C@@H](CC(C)C)C(=O)NCC(N)=O)NC(=O)[C@H](CC(N)=O)NC(=O)[C@H](CCC(N)=O)NC1=O` [DEAMINOOXYTOCIN TRISULFIDE], the Activity in the test on Rattus norvegicus [1] is reported as 135 IU mg-1; in the test listed under Rattus norvegicus [2], 0.6 IU mg-1; in the test filed under Rattus norvegicus [3], 32.7 IU mg-1. Also, the affinity on Oxytocin receptor, expressed as Ki, was 3 nM.

Turning to `CC[C@H](C)[C@@H]1NC(=O)[C@H](Cc2ccc(O)cc2)NC(=O)CCSSC[C@@H](C(=O)N2CCC[C@H]2C(=O)N[C@@H](CC(C)C)C(=O)NCC(N)=O)NC(=O)[C@H](CC(N)=O)NC(=O)[C@H](CCC(N)=O)NC1=O` [DEMOXYTOCIN], the Activity in the test with Rattus norvegicus [1] was 541 IU mg-1; in the test listed under Rattus norvegicus [4], 5 IU mg-1; in the test listed under Rattus norvegicus [3], 576 IU mg-1. Besides, the inhibitory constant (Ki) at Oxytocin receptor is 0.9 nM.

On Oxytocin receptor, `CC[C@H](C)[C@@H]1NC(=O)[C@H](Cc2ccc(O)cc2)NC(=O)[C@@H](N)CSSSC[C@@H](C(=O)N2CCC[C@H]2C(=O)N[C@@H](CC(C)C)C(=O)NCC(N)=O)NC(=O)[C@H](CC(N)=O)NC(=O)[C@H](CCC(N)=O)NC1=O` [OXYTOCIN TRISULFIDE] displayed an inhibition constant (Ki) of 6 nM.

On to `CC[C@H](C)[C@@H]1NC(=O)[C@H](Cc2ccc(O)cc2)NC(=O)[C@@H](N)CSSC[C@@H](C(=O)N2CCC[C@H]2C(=O)N[C@@H](CC(C)C)C(=O)NCC(N)=O)NC(=O)[C@H](CC(N)=O)NC(=O)[C@H](CCC(N)=O)NC1=O` [OXYTOCIN], for which the Activity with Rattus norvegicus [5] amounted to 450 IU mg-1; in the test filed under Rattus norvegicus [4], 5 IU mg-1; in the test filed under Rattus norvegicus [3], 510 IU mg-1.
